The numbers were not newly measured in patent US12343434B2, “Hybrid membrane camouflaged nanomedicine loaded with oxidative phosphorylation inhibitor and preparing method thereof” (Henan University, priority 2021, dated 2025), which cites them from elsewhere.

For this series the following is noted: background statement.

As for `CCc1n(CC(=O)O[C@@H]2C[C@H](C)CC[C@H]2C(C)C)c2ccccc2[n+]1C.[Cl-]` [Gboxin, 1-carboxymethyl-2-ethyl-3-methyl-1H-benzimidazole-3-ammonium L-menthol ester chloride], the blood half-life entry was “extremely short”.
